Test results: US10059697B2, “Compounds and combinations for the treatment of HIV” (priority 2015, dated 2018)
Where two headings read alike, the source gives them in different places.

Tested on: HIV-1 expression in latently infected resting CD4 T cells from HIV-1 Infected Subjects on cART
Assay: microbe, parasite or virus in culture
Type: cell-based
Conditions: Human immunodeficiency virus 1, CD4+ T; for fold induction at 0.015 µM: 24 h; for fold induction at 0.04 µM: 4 h, read-out: Fold HIV Activation, Geometric Mean, 40 nM Romidepsin, 4 h pulse; for fold induction at 0.3 µM: 0.25 h, read-out: Fold HIV Activation, Geometric Mean, 0.3 μM Carfilzomib, 15 min pulse
Description: The leukapheresis product was diluted with PBS and layered over Ficoll for isolation of PBMCs. PBMCs were treated with red blood cell lysis buffer and rested overnight (10 million cells/ml) in tissue culture medium (RPMI 1640 supplemented with 10% FBS and Pen/Strep) before the isolation of resting (CD69-CD25-HLA-DR-) CD4 T cells according to the manufacturer's instructions (EasySep Human CD4 T cell Enrichment Kit modified to also deplete CD69+, CD25+, or HLA-DR+ cells). Resting CD4 T cells were cultured in four replicate wells per condition with the indicated compounds or with dimethyl sulfoxide (DMSO, vehicle control) for 6 days. To assess latency reversal that occurs in response to mitogenic activation of T cells, cells were incubated with 50 ng/ml phorbol 12-myristate 13-acetate (PMA) and 500 ng/ml ionomycin. Unless otherwise indicated, continuous exposure was used. Where pulses are indicated, at the end of the pulse, cells were spun three times at 500×g for 5 min, supernatant was decanted and replaced with an equal volume of fresh media. When in combination with another compound that was not pulsed, the compound with continuous exposure was added back at the indicated concentration. The cultures were maintained in the presence of antivirals (elvitegravir and efavirenz at 100 nM each) to prevent viral spread and amplification in order to measure the quantity of virions produced (latency reversal) by the indicated compounds. At the end of the incubation period, cell-free culture supernatants were harvested and HIV-1 RNA levels were quantified by the COBAS® AmpliPrep/COBAS® TaqMan HIV-1 Test, v2.0 (Roche). Romidepsin was used as a control. Romidepsin is a HDAC inhibitor with HIV latency reversal activity (PLoS pathogens (2015), 11(9), e1005142). The combination of a phorbol ester (PMA) and a calcium ionophore (ionomycin) was also used as a mitogenic control that has strong HIV latency reversal activity. As this combination induces global T cell proliferation and activation, systemic administration would likely induce significant toxicity. As such, PMA and ionomycin are useful strictly as a tool to monitor the amount of virus that can be produced in response to a strongly activating stimuli.

CC(C)C[C@H](NC(=O)[C@H](Cc1ccccc1)NC(=O)c1cnccn1)B(O)O [Bortezomib, bortezomib, reference compound]
fold induction at 0.015 µM (read-out: Fold HIV Activation, 15 nM bortezomib, 24 hr pulse, individual subjects, Table 8): 3.47 | fold induction at 0.015 µM (read-out: Fold HIV Activation, 15 nM bortezomib, 24 hr pulse, individual subjects, Table 9): 3.47 | fold induction at 0.015 µM (read-out: Fold HIV Activation, Geometric Mean, 15 nM Bortezomib 24 h pulse, geometric mean of subjects, Table 5 (n = 10)): 1.36 | fold induction at 0.015 µM (read-out: Fold HIV Activation, Geometric Mean, 15 nM bortezomib, 24 hr pulse, geometric mean of subjects, Table 8 (n = 2)): 3.64 | fold induction at 0.015 µM (read-out: Fold HIV Activation, Geometric Mean, 15 nM bortezomib, 24 hr pulse, geometric mean of subjects, Table 9 (n = 2)): 3.64 | fold induction at 0.015 µM (read-out: Fold HIV Activation, Geometric Mean, 15 nM bortezomib, 24 hr pulse, geometric mean of subjects, Table 10 (n = 3)): 2.23

N#Cc1ncn(CC(=O)Nc2ccc3c(c2)C(=O)c2ccccc2-3)n1 [Compound 3, 2-(3-cyano-1H-1,2,4-triazol-1-yl)-N-(9-oxo-9H-fluoren-2-yl)acetamide]
fold induction at 6 µM (144 h, read-out: Fold HIV Activation, 6 μM Compound 3, 6 days, individual subjects, Table 3): 3.75 | fold induction at 1 µM (read-out: Fold HIV Activation, Geometric Mean, 1 μM Compound 3, geometric mean of subjects, Table 3 (n = 8)): 1.62 | fold induction at 3 µM (read-out: Fold HIV Activation, Geometric Mean, 3 μM Compound 3, geometric mean of subjects, Table 3 (n = 8)): 2.31 | fold induction at 3 µM (read-out: Fold HIV Activation, Geometric Mean, 3 μM Compound 3, geometric mean of subjects, Table 9 (n = 2)): 1.99 | fold induction at 3 µM (read-out: Fold HIV Activation, Geometric Mean, 3 μM Compound 3, geometric mean of subjects, Table 12 (n = 3)): 2.59 | fold induction at 6 µM (read-out: Fold HIV Activation, Geometric Mean, 6 μM Compound 3, geometric mean of subjects, Table 3 (n = 8)): 2.61

C#CCOc1cc2c(cc1NC(=O)Cn1cnc(C#N)n1)oc1ccccc12 [Compound 4, 2-(3-cyano-1H-1,2,4-triazol-1-yl)-N-(2-(prop-2-yn-1-yloxy)dibenzo[b,d]furan-3-yl)acetamide]
fold induction at 1 µM (144 h, read-out: Fold HIV Activation, 1 μM Compound 4, 6 days, individual subjects, Table 4): 1.09 | fold induction at 6 µM (144 h, read-out: Fold HIV Activation, 6 μM Compound 4, 6 days, individual subjects, Table 4): 3.03 | fold induction at 1 µM (read-out: Fold HIV Activation, Geometric Mean, 1 μM Compound 4, geometric mean of subjects, Table 4 (n = 5)): 1.09 | fold induction at 3 µM (read-out: Fold HIV Activation, Geometric Mean, 3 μM Compound 4, geometric mean of subjects, Table 4 (n = 5)): 3.54 | fold induction at 3 µM (read-out: Fold HIV Activation, Geometric Mean, 3 μM Compound 4, geometric mean of subjects, Table 10 (n = 3)): 3.54 | fold induction at 6 µM (read-out: Fold HIV Activation, Geometric Mean, 6 μM Compound 4, geometric mean of subjects, Table 4 (n = 5)): 3.97

C/C=C1\NC(=O)[C@H]2CSSCC/C=C/[C@H](CC(=O)N[C@H](C(C)C)C(=O)N2)OC(=O)[C@H](C(C)C)NC1=O [Romidepsin, reference compound]
fold induction at 0.04 µM (geometric mean of subjects, Table 1 (n = 10)): 2.73 | fold induction at 0.04 µM (geometric mean of subjects, Table 2 (n = 8)): 3.16 | fold induction at 0.04 µM (geometric mean of subjects, Table 3 (n = 8)): 3.16 | fold induction at 0.04 µM (geometric mean of subjects, Table 4 (n = 5)): 2.33

N#Cc1ncn(CC(=O)Nc2ccc3oc4ccccc4c3c2)n1 [Compound 1]
fold induction at 1 µM (read-out: Fold HIV Activation, Geometric Mean, 1 μM Compound 1, geometric mean of subjects, Table 1 (n = 10)): 1.03 | fold induction at 3 µM (read-out: Fold HIV Activation, Geometric Mean, 3 μM Compound 1, geometric mean of subjects, Table 1 (n = 10)): 2.94 | fold induction at 3 µM (read-out: Fold HIV Activation, Geometric Mean, 3 μM Compound 1, geometric mean of subjects, Table 5 (n = 10)): 3.12 | fold induction at 3 µM (read-out: Fold HIV Activation, Geometric Mean, 3 μM Compound 1, geometric mean of subjects, Table 6 (n = 9)): 3.53 | fold induction at 3 µM (read-out: Fold HIV Activation, Geometric Mean, 3 μM Compound 1, geometric mean of subjects, Table 7 (n = 7)): 5.92 | fold induction at 6 µM (read-out: Fold HIV Activation, Geometric Mean, 6 μM Compound 1, geometric mean of subjects, Table 1 (n = 10)): 6.32

COC[C@H](NC(=O)c1cnc(C)s1)C(=O)N[C@@H](COC)C(=O)N[C@@H](Cc1ccccc1)C(=O)[C@@]1(C)CO1 [Oprozomib, oprozomib, reference compound]
fold induction at 0.1 µM (1 h, read-out: Fold HIV Activation, Geometric Mean, 100 nM Oprozomib, 1 hr pulse, geometric mean of subjects, Table 7 (n = 7)): 2.37

CC(C)C[C@H](NC(=O)[C@H](CCc1ccccc1)NC(=O)CN1CCOCC1)C(=O)N[C@@H](Cc1ccccc1)C(=O)N[C@@H](CC(C)C)C(=O)[C@@]1(C)CO1 [Carfilzomib, carfilzomib, reference compound]
fold induction at 0.3 µM (geometric mean of subjects, Table 6 (n = 9)): 1.04 | fold induction at 0.3 µM (geometric mean of subjects, Table 11 (n = 3)): 0.94 | fold induction at 0.3 µM (geometric mean of subjects, Table 12 (n = 3)): 0.94

COc1cc2c(cc1NC(=O)Cn1cnc(C#N)n1)oc1ccccc12 [Compound 2]
fold induction at 1 µM (144 h, read-out: Fold HIV Activation, 1 μM Compound 2, 6 days, individual subjects, Table 2): 1.04 | fold induction at 6 µM (144 h, read-out: Fold HIV Activation, 6 μM Compound 2, 6 days, individual subjects, Table 2): 4.41 | fold induction at 3 µM (read-out: Fold HIV Activation, 3 μM Compound 2, individual subjects, Table 8): 3.42 | fold induction at 1 µM (read-out: Fold HIV Activation, Geometric Mean, 1 μM Compound 2, geometric mean of subjects, Table 2 (n = 8)): 1.09 | fold induction at 3 µM (read-out: Fold HIV Activation, Geometric Mean, 3 μM Compound 2, geometric mean of subjects, Table 2 (n = 8)): 2.76 | fold induction at 3 µM (read-out: Fold HIV Activation, Geometric Mean, 3 μM Compound 2, geometric mean of subjects, Table 8 (n = 2)): 2.46 | fold induction at 3 µM (read-out: Fold HIV Activation, Geometric Mean, 3 μM Compound 2, geometric mean of subjects, Table 11 (n = 3)): 2.75 | fold induction at 6 µM (read-out: Fold HIV Activation, Geometric Mean, 6 μM Compound 2, geometric mean of subjects, Table 2 (n = 8)): 3.56
